This is an account of results in patent US20060058329A1, “Pyrazole inhibitors of the transforming growth factor” (priority 2003, published 2006).

The IC50 is the concentration that inhibits the measured activity by half. One may read the melting point as the temperature of the solid-liquid transition.

Series [1] deals with TGF-β signalling (PAI-1 promoter-luciferase in HepG2 cells). In words: Cellular transcriptional assay (PAI-1 promoter luciferase reporter, TGF-β stimulated). The conditions noted are these: for IC50: Homo sapiens, HepG2, read-out: TGF-β cellular activity (IC50). (Reporter assays use an easily measured gene product as a stand-in for the process of interest.)
Procedure: Assay 1 (Cellular Transcriptional Assay)
The assay was performed in HepG2 cells stably transfected with the PAI-1 promoter (known to be a strong TGF-β responsive promoter) linked to a luciferase (firefly) reporter gene. The compounds were selected on their ability to inhibit luciferase activity in cells exposed to TGF-β. In addition, cells were transfected with a second luciferase (Renilla) gene which was not driven by a TGF-β responsive promoter and was used as a toxicity control.
96 well microplates were seeded, using a multidrop apparatus, with the stably transfected cell line at a concentration of 35000 cells per well in 200 μl of serum-containing medium. These plates were placed in a cell incubator.
18 to 24 hours later (Day 2), cell-incubation procedure was launched. Cells were incubated with TGF-β and a candidate compound at concentrations in the range 50 nM to 10 μM (final concentration of DMSO 1%). The final concentration of TGF-β (rhTGFβ-1) used in the test was 1 ng/mL. […] The final volume of the test reaction was 150 μl. Each well contained only one candidate compound and its effect on the PAI-1 promoter was monitored.
Columns 11 and 12 were employed as controls. Column 11 contained 8 wells in which the cells were incubated in the presence of TGF-β, without a candidate compound. Column 11 was used to determine the ‘reference TGF-β induced firefly luciferase value’ against which values measured in the test wells (to quantify inhibitory activity) were compared. In wells A12 to D12, cells were grown in medium without TGF-β. […]
12 to 18 hours later (day 3), the luciferase quantification procedure was launched. […] Following agitation (15 to 30 mins), luciferase activities of the plates were read in a dual-injector luminometer (BMG lumistar). For this purpose, 50 μl of luciferase assay reagent and 50 μL of ‘Stop & Glo’ buffer were injected sequentially to quantify the activities of both luciferases. […] For each of the compounds tested, a concentration response curve was constructed from which an IC50 value was determined graphically.
The target of series [2] is T1, recombinant GST-ALK5 (residues 198-503) (Homo sapiens, UniProt P36897).
T1 construct: recombinant GST-ALK5 (residues 198-503)
T1 sequence (P36897 198-503): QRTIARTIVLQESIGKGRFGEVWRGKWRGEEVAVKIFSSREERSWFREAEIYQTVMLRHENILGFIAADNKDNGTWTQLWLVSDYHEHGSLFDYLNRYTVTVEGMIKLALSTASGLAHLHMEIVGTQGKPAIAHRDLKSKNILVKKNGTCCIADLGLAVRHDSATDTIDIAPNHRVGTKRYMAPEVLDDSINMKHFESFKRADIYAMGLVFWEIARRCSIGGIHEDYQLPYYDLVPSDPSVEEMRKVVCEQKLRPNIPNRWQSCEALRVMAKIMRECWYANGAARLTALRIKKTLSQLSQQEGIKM
Briefly: Alk5 fluorescence polarization assay. The format is binding. The conditions noted are these: rhodamine green-labelled ligand 1 nM, ALK5 10 nM, read-out: ALK5 receptor modulator activity (IC50). As for the experimental part: Assay 2 (Alk5 Fluorescence Polarization Assay)
Kinase inhibitor compounds conjugated to fluorophores, can be used as fluorescent ligands to monitor ATP competitive binding of other compounds to a given kinase. The increase in depolarization of plane polarized light, caused by release of the bound ligand into solution, is measured as a polarization/anisotropy value. This protocol details the use of a rhodamine green-labelled ligand for assays using recombinant GST-ALK5 (residues 198-503).
Assay buffer components: 62.5 mM Hepes pH 7.5 (Sigma H-4034), 1 mM DTT (Sigma D-0632), 12.5 mM MgCl2 (Sigma M-9272), 1.25 mM CHAPS (Sigma C-3023). […]
ALK5 was added to assay buffer containing the above components and 1 nM of the rhodamine green-labelled ligand so that the final ALK5 concentration was 10 nM based on active site titration of the enzyme. […] The plates were read immediately on a LJL Acquest fluorescence reader (Molecular Devices, serial number AQ1048) with excitation, emission, and dichroic filters of 485 nm, 530 nm, and 505 nm, respectively. The fluorescence polarization for each well was calculated by the Acquest reader and then imported into curve fitting software for construction of concentration response curves. The normalized response was determined relative to the high controls (1 μl DMSO in column 12, rows A-D) and the low controls (1 μl of control compound in column 12, rows E-H). […]

As to `O=C1C=CCC1` [CPO, Cyclopentenone, reference compound], the “firefly and renilla luciferase activities, relative to those obtained in column 11 (TGF-β only)” value in series [1] (500 μM CPO in the presence of TGF-β, toxicity control) is “around 50%”.

For the compound `Cc1cccc(-c2n[nH]cc2-c2ccnc(-c3ccc(OCc4cn(C)cn4)cc3)c2)n1` [Example 1, 2-{4-[(1-methyl-1H-imidazol-4-yl)methoxy]phenyl}-4-[3-(6-methylpyridin-2-yl)-1H-pyrazol-4-yl]pyridine], the IC50 in series [2] is 5 nM; in series [1], 34 nM.

`CCN1CCN(C(=O)c2ccc(-c3cc(-c4[nH]ncc4-c4cccc(C)n4)ccn3)cc2)CC1` [Example 19, 3-[2-(4-((1-ethyl-piperazin-4-yl)carbonyl)phenyl)pyridin-4-yl]-4-[6-methylpyridin-2-yl]-1H-pyrazole] had a melting point of 126 °C.

On to `Cc1cccc(-c2cn[nH]c2-c2ccnc(-c3ccc(OCCN4CCCC4)cc3)c2)n1` [Example 22, 3-[2-(4-(2-(pyrolidin-1-yl)ethoxy)phenyl)pyridin-4-yl]-4-[6-methylpyridin-2-yl]-1H-pyrazole], for which the melting point came out at 96 °C. Also, the IC50 in series [2] amounted to 17 nM. Also, the concentration for half-maximal inhibition (IC50) in series [1] is 38 nM.

Compound `Cc1cccc(-c2cn[nH]c2-c2ccnc(-c3ccc(OCC(=O)N4CCOCC4)cc3)c2)n1` [Example 23, 3-[2-(4-((morpholin-4-yl)carbonylmethyloxy)phenyl)pyridin-4-yl]-4-[6-methylpyridin-2-yl]-1H-pyrazole] had a melting point of 170 °C.
